One data set deals with SARS-CoV-2 PLpro (Severe acute respiratory syndrome coronavirus 2, UniProt P0DTD1). The data set can be described thus: cell-based.
The test system of data set [1] is SARS-CoV-2 PLpro mediated IFNB expression. Type of data set: cell-based.
Another data set has as its system Vero E6 cells. The conditions noted are these: African green monkey.

A value given as a limit tells only on which side of the number the result lay.

As for `CCC(C(=O)Nc1cc(NC2CCNCC2)ccc1C)n1cc(Br)cc2nc(SCc3ccc(F)cc3)nc1-2` (stereo not shown) [Compound 44], on SARS-CoV-2 PLpro, a half-maximal response (EC50) required 3.81 ± 0.59 µM.
As to `CCC(C(=O)Nc1cc(NC2COC2)ccc1C)n1cc(Br)cc2nc(SCc3ccc(F)cc3)nc1-2` (stereo not shown) [Compound 45], the “IFNB mRNA expression” value in data set [1] is on record as “fully restore IFNB expression”.
With `CCC(C(=O)Nc1cc(NC2CCNCC2)ccc1C)n1cc(Cl)cc2nc(SCc3ccc(F)cc3)nc1-2` (stereo not shown) [Compound 39], the “IFNB mRNA expression” value in data set [1] was “fully restore IFNB expression”. Moreover, the CC50 (as a rule, the concentration at which the toxic effect on the cells reaches its halfway point) in the data set with Vero E6 cells is over 50 µM.

The values are drawn from paper PMC11252453 (Acta Pharmaceutica Sinica. B, 2024).
